In patent US20040106647A1, “Modulators of Cdk9 as a therapeutic target in cardiac hypertrophy” (priority 2002, published 2004):

Columns and labels:
cardiac myocytes [1] = assay: [3H]uridine incorporation (RNA synthesis) in cardiac myocytes; type: cell-based, rat
Procedure: (§1) Neonatal ventricular myocytes from 1 to 2 day-old Sprague-Dawley rats were subjected to Percoll gradient centriftigation and differential plating, to enrich for cardiac myocytes and deplete nonmyocytes (Oh et al., 2001). Cells were infected for 6 hr, after overnight culture, at a multiplicity of infection (MOI) of 20, then were cultured in serum-free medium for an additional 24 hr before the addition of agonists. The efficiency of viral gene transfer is >95% under the conditions used. DRB (Sigmna) was dissolved in dimethylsulfoxide (DMSO) and then in culture medium to the desired final concentration in 0.1% (vol/vol) DMSO.
Cells were incubated for 24 hr with 1 μCi/ml of either precursor, in the absence or presence of ET-1 and [^3H]uridine and [^3H]phenylalanine incorporation was measured. Total RNA was extracted using TRIzol (Invitrogen), for simultaneous extraction of DNA from the samples.
(§2) Hypertrophy was monitored as [^3H]uridine incorporation (FIG. 2F, FIG. 2H; n=4 per group) and [^3H]phenylalanine incorporation (FIG. 2I; n=6 per group), corrected for DNA content. Myocyte size was visualized with eGFP (FIG. 2G, FIG. 2J). Bar, 100 μm.

cardiac myocytes [2] = assay: Myocyte size visualized with eGFP; type: cell-based, rat; settings: DRB pretreatment, ET-1 stimulation
Procedure: as §1, §2

cardiac myocytes [3] = assay: Myocyte apoptosis by flow cytometry (hypodiploid DNA); type: cell-based
Description: Myocyte apoptosis was monitored by flow cytometry as hypodiploid DNA, using FITC-conjugated MF20 antibody to sarcomeric myosin heavy chains and propidium iodide in the presence of RNase A (Oh et al., 2001).

[4] = tested on: mitogen-activated protein kinases; assay: Phosphorylation of mitogen-activated protein kinases in cultured cardiac myocytes; type: cell-based, rat; settings: 50 μM DRB
pol II CTD = assay: Western blotting of pol II CTD phosphorylation in cultured ventricular myocytes; type: cell-based, rat; settings: for hyperphosphorylation of pol II: serum-starved 24 hr, stimulated 15 min, ET-1 0.1 μM, PE 0.1 μM, HB-EGF 1 nM
Procedure: Western blotting was performed using the identical cell lysates. The following antibodies were used: rabbit antibodies against pol II, Cdk7, Cyclin H, MAT1, CyclinT1, Hsp70, Hsp90 and Cdc37; goat antibody against Cyclin T2a/b; and mouse monoclonal antibodies to the Ser2 and Ser5 CTD phoshopeptides (Patturajan et al., 1998; Herrmann et al., 2001). Protein expression was visualized using horseradish peroxidase-conjugated second antibodies and enhanced chemiluminescence reagents (Amersham Pharmacia Biotech).
as §1
Briefly, ventricular myocytes were analyzed by Western blotting as in Example 1. Ventricular myocytes were serum-starved for 24 hr, stimulated for 15 min with ET-1 (0.1 μM), PE (0.1 μM), HB-EGF (1 nM), or the vehicle, and analyzed by Western blotting with antibody to the pol II CTD. Ventricular myocytes were stimulated with ET-1 for the indicated times.
(§3) Next, cells were preincubated with DRB for 2 hr at the concentrations shown, and were assayed for pol II phosphorylation after stimulation with ET-1 for 15 min or the indicated intervals. Immune complexes were treated in vitro with 50 μM DRB and assayed by phosphorylation of the recombinant GST-CTD substrate. […] Based on this effect, 50 μM DRB was added in vitro to cardiac Cdk9 and Cdk7 immune complexes, and assayed for its effect on phosphorylation of the recombinant CTD substrate.

Cdk9 [5] = biological target: T1, Cdk9 (Rattus norvegicus, UniProt Q641Z4); assay: Immune complex CTD kinase assay (GST-CTD substrate), Cdk9; type: biochemical
T1 construct: endogenous in cells; host or cells: neonatal rat ventricular myocytes; immunoprecipitated with polyclonal rabbit anti-Cdk9 and protein A-Sepharose
Procedure: (§4) Immune complex kinase assays were performed as described (Yang et al., 1996), using polyclonal rabbit antibody against Cdk7 or Cdk9 together with protein A-Sepharose. Kinase assays were performed by adding 25 μl of 50 mM Tris-HCl [pH 7.4], 10 mM MgCl2, 5 mM dithiothreitol, 2.5 mM MnCl2, 5 μM ATP, 5 μCi of [γ-^32P]ATP, and 200 ng of GST-CTD to the beads and incubating at room temperature for 60 min. The complexes were resolved by SDS-polyacrylamide gel electrophoresis, and CTD phosphorylation was visualized by autoradiography and quantified using a phosphorimager and ImageQuant version 5.2 (Molecular Dynamics). Where indicated, immunoprecipiates were incubated with 50 μg/ml of bovine pancreas ribonuclease A (RNase A; Sigma) for 60 min prior to the CTD kinase assay.
as §3

Cdk9 [6] = biological target: Cdk9 (Homo sapiens, UniProt P50750); settings: Zhu et al., 1997; cited from earlier work
Cdk7 = biological target: T2, Cdk7 (Rattus norvegicus, UniProt P51952); assay: Immune complex CTD kinase assay (GST-CTD substrate), Cdk7; type: biochemical; settings: 50 μM DRB added in vitro to cardiac immune complexes
T2 construct: endogenous in cells; host or cells: neonatal rat ventricular myocytes; immunoprecipitated with polyclonal rabbit anti-Cdk7 and protein A-Sepharose
T2 sequence (P51952 1-329): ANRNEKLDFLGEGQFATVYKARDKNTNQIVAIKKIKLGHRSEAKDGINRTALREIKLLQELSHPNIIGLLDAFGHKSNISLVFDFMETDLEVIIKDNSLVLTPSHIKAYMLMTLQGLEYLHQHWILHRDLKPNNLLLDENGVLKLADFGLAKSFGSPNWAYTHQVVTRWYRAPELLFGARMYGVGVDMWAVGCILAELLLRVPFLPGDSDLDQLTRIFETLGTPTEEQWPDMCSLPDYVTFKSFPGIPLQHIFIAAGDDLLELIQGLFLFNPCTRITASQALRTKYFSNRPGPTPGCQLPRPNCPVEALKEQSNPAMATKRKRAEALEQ
T2 sequence (Q9R1A0 1-323 partner): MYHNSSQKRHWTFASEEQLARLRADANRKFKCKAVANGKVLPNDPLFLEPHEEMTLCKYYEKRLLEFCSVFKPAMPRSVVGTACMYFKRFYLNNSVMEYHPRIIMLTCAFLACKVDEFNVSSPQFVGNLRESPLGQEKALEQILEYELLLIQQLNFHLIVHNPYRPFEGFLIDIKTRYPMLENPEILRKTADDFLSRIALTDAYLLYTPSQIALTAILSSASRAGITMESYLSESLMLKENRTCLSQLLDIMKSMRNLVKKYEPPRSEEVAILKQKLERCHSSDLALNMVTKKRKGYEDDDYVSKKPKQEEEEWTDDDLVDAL
Procedure: as §4, §3

cyclin T/Cdk9 complex = assay: Co-precipitation of 7SK snRNA with cyclin T/Cdk9 (RT-PCR of immune complexes); type: cell-based, rat; settings: cardiac myocytes treated with ET-1
Procedure: Total RNA was isolated from Cdk9, cyclin T1, cyclin T2, and Cdk7 immune complexes using TRIzol and subjected to DNase I (Invitrogen) for 15 min at room temperature, followed by reverse transcription using antisense oligonucleotides for 7SK snRNA. The PCR primers were: sense, (SEQ. ID. NO. 3) […]; antisense, (SEQ. ID. NO. 4) […]. PCR products were subjected to electrophoresis on 2% agarose gel and stained with ethidium bromide.
ET-1 caused the rapid loss of Cdk9-associated 7SK snRNA, within 15 min. These findings were substantiated using each of three antibodies to the cyclin T/Cdk9 complex. Levels of 7SK RNA in the corresponding total cell lysates were unchanged. […] Thus, hypertrophic signals in cultured cardiac myocytes and the intact heart induce the dissociation of 7SK RNA from endogenous cyclin T/Cdk9. […] Conversely, endogenous cyclin T/Cdk9 was recovered from cardiac lysates using streptavidin-agarose plus a biotinylated 2′-O-methyl (2′-OMe) oligonucleotide complementary to 7SK snRNA (FIG. 3G): this method confirmed independently the dissociation of 7SK snRNA from cardiac cyclin T/Cdk9 for Gq and calcineurin.

[7] = biological target: cyclin dependent kinase 9 (Cdk9) (endogenous, mouse myocardium) (mouse) (UniProt Q99J95); assay: cell-based or functional assay
[8] = 50 μM, cardiac myocytes, [3H]uridine incorporation
[9] = antisense knockdown of 7SK snRNA, 48 hr after transfection, cardiac myocytes

Sequence of cyclin dependent kinase 9 (Cdk9) (endogenous, mouse myocardium) (mouse) (Q99J95 whole entry): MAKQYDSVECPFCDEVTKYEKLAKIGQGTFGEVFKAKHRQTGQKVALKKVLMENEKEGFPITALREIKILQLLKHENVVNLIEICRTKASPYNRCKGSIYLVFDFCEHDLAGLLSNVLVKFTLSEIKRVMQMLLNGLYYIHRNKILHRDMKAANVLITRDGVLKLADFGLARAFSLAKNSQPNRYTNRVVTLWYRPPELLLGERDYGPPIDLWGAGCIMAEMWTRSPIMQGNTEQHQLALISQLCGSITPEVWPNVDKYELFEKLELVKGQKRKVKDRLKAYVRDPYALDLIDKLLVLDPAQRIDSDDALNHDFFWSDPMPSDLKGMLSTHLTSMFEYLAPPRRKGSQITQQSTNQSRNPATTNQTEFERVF
T1 sequence (Q641Z4 whole entry): as the sequence (Q99J95 whole entry) above
Sequence of Cdk9 (Homo sapiens, UniProt P50750) (P50750 whole entry, species assumed): as the sequence (Q99J95 whole entry) above, with T17S, K37R, Q40K, K258N, F262Y counted along it
Sequence of Cdk9 (Homo sapiens, UniProt P50750) (O60563 whole entry partner, species assumed): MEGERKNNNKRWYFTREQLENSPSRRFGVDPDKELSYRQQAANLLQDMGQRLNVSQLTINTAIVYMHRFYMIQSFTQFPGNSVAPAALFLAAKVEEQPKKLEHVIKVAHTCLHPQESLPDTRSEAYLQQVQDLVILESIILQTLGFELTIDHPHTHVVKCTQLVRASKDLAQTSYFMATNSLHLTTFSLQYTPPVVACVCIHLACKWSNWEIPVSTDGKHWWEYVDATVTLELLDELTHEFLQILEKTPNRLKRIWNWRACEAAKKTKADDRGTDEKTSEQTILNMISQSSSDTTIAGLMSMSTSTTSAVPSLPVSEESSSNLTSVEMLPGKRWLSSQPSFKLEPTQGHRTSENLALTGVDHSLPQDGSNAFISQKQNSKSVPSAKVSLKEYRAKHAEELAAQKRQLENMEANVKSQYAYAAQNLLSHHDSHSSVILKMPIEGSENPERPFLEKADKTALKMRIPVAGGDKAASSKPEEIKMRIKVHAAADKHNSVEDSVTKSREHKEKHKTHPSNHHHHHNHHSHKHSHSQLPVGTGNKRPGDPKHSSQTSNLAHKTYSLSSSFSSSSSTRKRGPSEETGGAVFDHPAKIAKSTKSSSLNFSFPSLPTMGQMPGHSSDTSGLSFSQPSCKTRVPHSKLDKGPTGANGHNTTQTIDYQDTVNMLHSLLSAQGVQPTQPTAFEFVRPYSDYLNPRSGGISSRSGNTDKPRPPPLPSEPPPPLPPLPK

Molecule: OC[C@H]1O[C@@H](n2cnc3cc(Cl)c(Cl)cc32)[C@H](O)[C@@H]1O [DRB, 5,6-dichloro-1-beta-D-ribofuranosylbenzimidazole]
- inhibition of ET-1 induced RNA synthesis (cardiac myocytes [1]; [8]): ~80%
- inhibition of basal RNA synthesis (cardiac myocytes [1]; [8]): ~80%
- ET-1-associated increase in myocyte size (cardiac myocytes [2]): blocked
- apoptosis (cardiac myocytes [3]; conditions sufficient to block ET-1 induction of pol II phosphorylation almost completely): no increase in apoptosis
- cell death (cardiac myocytes [3]; higher concentrations that block RNA synthesis more completely): did induce cell death
- phosphorylation of mitogen-activated protein kinases downstream of ET-1 [4]: without impairing
- ET-1-induced pol II phosphorylation (pol II CTD; 50 μM DRB, preincubated 2 hr, ET-1 15 min, cultured cardiac myocytes): inhibited
- Cdk9 activity (phosphorylation of recombinant CTD substrate) (Cdk9 [5]; 50 μM DRB added in vitro to cardiac immune complexes): blocked Cdk9 activity almost completely
- selectivity among CTD kinases (Cdk9 [6]): selective activity against Cdk9
- Cdk7 activity (phosphorylation of recombinant CTD substrate) (Cdk7): little or no effect

Molecule: CNC[C@H](O)c1cccc(O)c1 [PE, phenylephrine]
- hyperphosphorylation of pol II (pol II CTD): induced

Molecule: antisense 7SK: antisense phosphorothioate oligonucleotide, SEQ. ID. NO. 1, 5′-CCTTGAGAGCTTGTTTGG AGG-3′, against 7SK snRNA (antisense CCTTGAGAGCTTGTTTGGAGG; all phosphorothioate, sugars by position and methylation of C not given here)
- uridine incorporation (cardiac myocytes [1]; [9]): as large an increase in uridine incorporation as did ET-1 itself
- endogenous Cdk9 activity (Cdk9 [5]; [9]): markedly increased

Molecule: endothelin-1 [ET-1]
- augmentation of [3H]uridine incorporation (cardiac myocytes [1]; control eGFP-infected myocytes, 24 hr): one-third
- increase in proportion of pol IIo (pol II CTD; ET-1 time course, peak at 15 min, from 4% at baseline): 9 fold
- maximum proportion of pol IIo (pol II CTD; ET-1 time course, peak at 15 min, baseline 4%): 36%
- preferred CTD heptad residue phosphorylated (pol II CTD; phospho-epitope specific antibodies, Ser2 vs Ser5): preferentially induce phosphorylation at Ser2
- hyperphosphorylation of pol II (pol II CTD): induced
- time to loss of Cdk9-associated 7SK snRNA (cyclin T/Cdk9 complex): ≤ 15 min
- Cdk9 CTD kinase activity (Cdk9 [5]; ventricular myocytes stimulated with ET-1 for 15 min): increased

Molecule: mouse cyclin T1 (cardiac-specific αMHC-cyclin T1 transgene) (from UniProt Q9QWV9 1-724)
- Cdk9 activity (immune complex CTD kinase assay), high-expression transgenic line [7]: 6 fold
- Cdk9 activity (immune complex CTD kinase assay), low-expression transgenic line [7]: 2 fold
- baseline Cdk9 activity (immune complex kinase assay), cyclin T1 mice versus wild-type littermates [7]: 4.4 fold

B1: RNase A: bovine pancreas ribonuclease A (Sigma) (protein, UniProt P61823 27-150, looked up)
Ribonuclease pancreatic: KETAAAKFERQHMDSSTSAASSSNYCNQMMKSRNLTKDRCKPVNTFVHESLADVQAVCSQKNVACKNGQTNCYQSYSTMSITDCRETGSSKYPNCAYKTTQANKHIIVACEGNPYVPVHFDASV
- Cdk9 kinase activity after treatment of immune complexes (Cdk9 [5]; RNase A 50 μg/ml 60 min, control cells, GST-CTD substrate): levels even higher than did ET-1

B2: heparin-binding epidermal growth factor (protein, UniProt Q99075 63-148, looked up)
Heparin-binding EGF-like …: DLQEADLDLLRVTLSSKPQALATPNKEEHGKRKKKGKGLGKKRDPCLRKYKDFCIHGECKYVKELRAPSCICHPGYHGERCHGLSL
notes: member of the EGF family, secreted mediator of growth signals in the heart
- hyperphosphorylation of pol II (pol II CTD): induced
